In US20100256217A1, “ANTIVIRAL INHIBITION OF CASEIN KINASE II” (The Trustees of the University of Pennsylvania, priority 2006, published 2010):
“Also recorded” adds a separate entry of the source.

Key:
[1] = system: CK2-mediated phosphorylation of WNV C in Vero cells; assay: In vivo 32P labeling and immunoprecipitation of WNV C from transfected cells under DRB; type: cell-based, African green monkey; details: cells transfected with pcWNV C-His; DRB 100, 500 and 1000 μM; anti-His immunoprecipitation
Protocol: In vivo ^32P-Orthophosphate labeling and WNV C immunoprecipitation. In order to check whether Cp is phosphorylated in vivo also, Capsid-transfected cells were pulse-chased with […] and their lysates were analyzed for the detection of phosphorylated capsid proteins by Immunoprecipitation. HeLa cells were grown in DMEM medium supplemented with 10% FBS until they were subconfluent. The cells were transfected with WNV Cp constructs and DOTAP/DNA containing media were replaced after about 6-hours with media with/without […]. DBS was added to a final concentration of 0.1, 0.5 and 1.0 mM. The Control cells were treated with DMSO alone. Phospholabeling and immunoprecipitation of WNV CP were performed as described previously. […] WNV CP was precipitated with anti-His monoclonal antibody (Scil Diagnostics, Martinsried, Germany). […] The immunoprecipitated capsid proteins were eluted from the protein G-agarose by boiling them for 5 min and analyzed by SDS-PAGE, followed by autoradiography.
Subsequent to the identification and characterization of CK2-mediated phosphorylation of the rC in vitro, we wanted to study this phenomenon in vivo. […] The lysates from the matching controls that were not exposed to radioactivity, were analyzed separately for capsid expression. […]

capsid-containing VLPs = assay: ELISA of capsid from culture fluid (secretion of capsid-containing VLPs); type: cell-based; details: DRB added to culture medium; anti-C ELISA
From the text: Quantification of the protein C in ELISA from the supernatants of transfected cells. The ability of unprocessed and truncated capsid proteins to participate in the budding was assed by ELISA from culture fluid of transfected cells. In 6 cm plates, the cells were transfected with full-length capsid (123 aa) or truncated capsid (105 aa) or C(S36A) plasmids or in combination with WNV M and E-expressing constructs. Forty eight hours post-transfection, the supernatants were collected and analyzed for viral budding. One hundred microliters of supernatants were plated in triplicate, in a serial dilution series (dilutions in carbonate bicarbonate buffer) on a high protein binding EIA/RIA 96 well plate (Costar) and incubated at 4° C. overnight. In addition to the supernatants from experimental samples, a mock-transfected and untransfected media control is also added to the assay samples. Moreover, a series of wells are used as negative controls for the assay in that no supernatant is added to these wells only carbonate bicarbonate buffer. After 3 washes with PBS, nonspecific binding sites are blocked with 3% BSA in PBS solution, for 2 hours at room temperature. […] The reaction is terminated by adding 4N H2SO4 and protein levels are measured using an ELISA reader (Molecular Diagnostics) at 450 nm. […]

WNV [2] = assay: WNV release from infected 293 cells, ELISA with anti-E antibody; type: cell-based, West Nile virus; details: 4 MOI, 48 h post infection
From the text: FIG. 6 includes panels A and B. Both reduced CK2 activity and depletion of CK2 transcripts affects viral release. FIG. 6 panel A: Depletion of CK2 transcripts reduced viral replication. As described earlier, the cells were transfected with full-length infectious clone along with siRNA-CK2α and siRNA-CK2β molecules. Lane 1 depicts the amount of viral release from the plates that were not treated with any of siRNA molecules. […] FIG. 6 panel B: Effect of cell-permeable CK2-inhibitor on viral release. 293 cells were infected with infectious WNV samples, propagated from an infectious clone of WNV.
In the context of whole virus, we examined whether inhibition of cellular CK2 affects WN viral release. We generated high titer of viral sample from Vero cells transfected with full length infectious clone (Pierson et al 2005). We harvested culture fluid at regular intervals, determined viral titre by routine Plaque assays and used them for infection assays. […] Forty-eight hours post infection, viral release was monitored by both plaque assays as well as ELISAs measuring the presence of […] using monoclonal anti E antibody. FIG. 6B depicts the release of viral molecules from WNV-infected cells as measured by ELISA using anti-E antibody. […] While the inhibition of cellular CK2 activity results in the reduced viral load, it is presumable that depletion of CK2 transcripts also could cause similar effect. In order to test this, in the second approach, WNV release was evaluated under the conditions where expression of CK2 subunits was knocked out. Cellular CK2 was knocked out by using siRNA molecules that specifically target CK2α and CK2β transcripts. siRNA-CK2α and siRNA-CK2β molecules were used to deplete cellular transcripts of CK2. 293 cells were infected with infectious WNV followed by the treatment with either siRNA control molecules or siRNA-CK2α or siRNA-CK2β molecules. Release of WNV was monitored from these plates. […] We also observed severe impairment of capsid phosphorylation in the pulse-chase studies under the influence of siRNA molecules.

WNV [3] = assay: WNV titers by plaque assay on Vero cells; type: cell-based, West Nile virus; details: DRB at different doses (FIG. 7B)
Protocol: The inhibited level of viral release indicates the siRNA-CK2 mediated effects are statistically significant.
Virus titration by plaque assay. Virus production was titered by plaque assays using Vero cells. For routine analysis, cells were seeded in 6-well (6×10^5 cells/well) or 12-well (3×10^5 cells/well) plates in -MEM with 10% FBS for 3 h at 37° C. Medium was removed, serial dilutions of virus supernatants in -MEM with 2% FBS were added (0.30 ml/well for 6-well plates and 0.15 ml/well for 12-well plates), and the cells were incubated for 2 h at 37° C. […] Virus concentrations are determined as PFU per milliliter.
In the context of whole virus, we examined whether inhibition of cellular CK2 affects WN viral release. […] We harvested culture fluid at regular intervals, determined viral titre by routine Plaque assays and used them for infection assays. […] Forty-eight hours post infection, viral release was monitored by both plaque assays as well as ELISAs measuring the presence of […] using monoclonal anti E antibody. FIG. 6B depicts the release of viral molecules from WNV-infected cells as measured by ELISA using anti-E antibody. […] In order to test this, in the second approach, WNV release was evaluated under the conditions where expression of CK2 subunits was knocked out. […] Release of WNV was monitored from these plates. […]

recombinant CK2 = biological target: T1, recombinant CK2 (Homo sapiens, UniProt P68400); assay: In vitro CK2 kinase assay with recombinant WNV C as substrate; type: biochemical; details: 32P-ATP or 32P-GTP as donor; autoradiography
T1 construct: purchased Biomol Research Laboratories (Plymouth Meeting, Pa.)
Protocol: In vitro protein kinase assays. In vitro phosphorylation assays were routinely done with the recombinant Cp proteins with the recombinant CK2 (Biomol, Pa.) in a 20 μl-reaction volume. Reaction mixtures (20 μL) contained 25 mM Hepes, pH 7.4, 2 mM MnCl2 or 5 mM MgCl2, 1.6 μCi of -^32P-GTP or […] (Amersham Pharmacia Biotech), and 0.5 to 1 μg of purified His-tagged WNV Cp as a substrate. Histone 1B (Calbiochem) protein was used as positive control. The phosphorylation reaction was started by the addition of ^32P-ATP or ^32P-GTP and the reaction was carried out for 30 min at 30 C. The kinase assays were arrested by the addition of 20 μl of SDS-sample buffer and the reaction mixtures were boiled for five minutes. Phosphorylated proteins were separated in SDS PAGE and proteins ere visualized by autoradiography.
Purified rC fractions from E. coli cells (M15[pREP4+pQE-WNV C]) were subjected to subsequent kinase assays. Using purified CK2 enzyme, in vitro assay was performed with ^32P-ATP as a phosphate donor to examine possible role of CK2 in the phosphorylation of WNV C. […] CK2 is unique among protein kinases in its ability to use both ATP and GTP as phosphoryl group donors. Another biochemical property of CK2 that makes it different from other kinases is its high sensitivity to inhibition by heparin.

T1 sequence (P68400 whole entry): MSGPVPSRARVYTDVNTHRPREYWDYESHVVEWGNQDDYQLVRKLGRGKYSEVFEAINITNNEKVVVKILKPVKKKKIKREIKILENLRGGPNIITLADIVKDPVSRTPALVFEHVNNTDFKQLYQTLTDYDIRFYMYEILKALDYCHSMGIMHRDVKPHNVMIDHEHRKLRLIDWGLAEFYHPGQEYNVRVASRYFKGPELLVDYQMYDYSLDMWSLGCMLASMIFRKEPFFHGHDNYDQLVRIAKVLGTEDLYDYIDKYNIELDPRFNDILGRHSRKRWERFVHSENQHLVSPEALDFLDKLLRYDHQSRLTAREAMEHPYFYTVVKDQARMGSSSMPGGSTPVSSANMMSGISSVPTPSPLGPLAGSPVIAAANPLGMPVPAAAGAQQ
T1 sequence (P67870 whole entry partner): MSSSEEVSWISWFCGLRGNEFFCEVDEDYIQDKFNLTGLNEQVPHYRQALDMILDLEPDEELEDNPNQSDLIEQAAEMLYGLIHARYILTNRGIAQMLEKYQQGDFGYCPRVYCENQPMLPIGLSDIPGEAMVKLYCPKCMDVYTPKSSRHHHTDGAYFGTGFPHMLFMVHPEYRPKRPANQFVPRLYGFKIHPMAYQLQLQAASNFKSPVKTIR

Compound: OC[C@H]1O[C@@H](n2cnc3cc(Cl)c(Cl)cc32)[C@H](O)[C@@H]1O [DRB, 5,6-Dichloro-1-b-D-ribofuranosylbenzimidazole]
- in vivo phosphorylation of WNV C [1]: severely inhibited; also recorded: specifically blocks the phosphorylation of capsid; also recorded: adversely inhibited
- level of capsid in the culture fluid (capsid-containing VLPs): significantly reduced the level of capsid from the culture fluid
- viral release (WNV [2]; DRB 5 uM): significantly reduces viral release
- viral release (WNV [2]; DRB 10 uM): reduced by almost one fold
- viral release (WNV [2]; DRB 50 uM): completely effective at blocking viral release
- WNV replication and release into culture medium by plaque assay (WNV [3]): dose dependent

Compound: heparin
- heparin concentration at which the ability of CK2 to phosphorylate C was adversely affected (recombinant CK2): above 10 uM
- phosphorylation of C by CK2 in vitro (recombinant CK2): severely inhibited; also recorded: severely impaired in a dose dependent manner
